Measurements taken from article PMC7850424 (Journal of Enzyme Inhibition and Medicinal Chemistry, 2021).

Key:
SARS-CoV-2 3CL^pro [1] = molecular target: T1, SARS-CoV-2 3CL^pro (Severe acute respiratory syndrome coronavirus 2, UniProt P0DTD1); assay: biochemical; details: for inhibition at 50 µM: read-out: % Inhibition at 50 μM, 50 μM compound; for % Inhibition at 50 μM: 50 μM compound
[2] = test system: SARS-CoV-2 (C-Tan-nCoV Wuhan strain 01); assay: microbe, parasite or virus in culture; format: cell-based
SARS-CoV-2 3CL^pro [3] = molecular target: T1, SARS-CoV-2 3CL^pro; format: biochemical
SARS-CoV 3CL^pro = SARS-CoV 3CL^pro (Severe acute respiratory syndrome coronavirus, UniProt P0C6X7); format: biochemical
SARS-CoV = details: cited from earlier work

SMILES | inhibition at 50 µM (SARS-CoV-2 3CL^pro [1]) [%] | also measured
O=c1cc(-c2ccccc2)oc2ccc(O)c(O)c12 [5,6-Dihydroxyflavone] | 26.6 ± 0.4 | 
O=c1cc(-c2ccccc2)oc2cc(O)c(O)cc12 [6,7-Dihydroxyflavone] | 56.7 ± 2 | 
O=c1cc(-c2ccccc2)oc2cc(O)c(O)c(O)c12 [Baicalein] |  | inhibition activity at the post-entry stage [2]: mainly active; EC50 ([2]; Severe acute respiratory syndrome coronavirus 2, Vero, 48 h): 2.9 µM; anti-SARS-CoV-2 3CLpro activity in cell lysate (SARS-CoV-2 3CL^pro [3]): showed inhibition activity; inhibition of SARS-CoV 3CLpro activity (SARS-CoV 3CL^pro): inhibit
O=C(O)[C@H]1O[C@@H](Oc2cc3oc(-c4ccccc4)cc(=O)c3c(O)c2O)[C@H](O)[C@@H](O)[C@@H]1O [Baicalin] | ~41 | 
O=c1cc(-c2ccccc2)oc2cc(O)cc(O)c12 [Chrysin] | 2.6 ± 1.1 | 
O=c1c(O)c(-c2ccc(O)cc2)oc2c(O)c(O)cc(O)c12 [Herbacetin] | 59.1 ± 1.9 | 
O=c1c(O)c(-c2cc(O)c(O)c(O)c2)oc2cc(O)cc(O)c12 [Myricetin] | 30.8 ± 4.6 | inhibition of SARS-CoV (SARS-CoV): reported to inhibit
O=c1cc(-c2ccc(O)cc2)oc2cc(O)c(O)c(O)c12 [Scutellarein] |  | inhibition of SARS-CoV (SARS-CoV): reported to inhibit
O=C(O)[C@H]1O[C@@H](Oc2cc3oc(-c4ccc(O)cc4)cc(=O)c3c(O)c2O)[C@H](O)[C@@H](O)[C@@H]1O [Scutellarin] | 28.9 ± 1.6 | % Inhibition at 50 μM (SARS-CoV-2 3CL^pro [1]; 50 µM): mild inhibitory activity
COc1c(O)cc(O)c2c(=O)cc(-c3ccccc3)oc12 [Wogonin] | 6.1 ± 0.8 | % Inhibition at 50 μM (SARS-CoV-2 3CL^pro [1]): not active
